Experimental findings from US5856480A, “Optically active compound” (Nippon Soda Co., Ltd., priority 1994, dated 1999) are described below.

Data set [1] has as its system platelet aggregation. Description: Inhibitory effect on platelet aggregation, overall statement. The class given is cell-based, rabbits. The settings on record: same procedure as Test Example 1; crystalline compound of Example 2. As to the method: In vitro inhibitory activity of the compound of the present invention was evaluated on platelet aggregation each induced by adenosine diphosphate (ADP), collagen, arachidonic acid, U-46619 and thrombin, respectively, by using an aggregation meter (type: hematracer PAT-606, manufactured by Niko bioscience Co., Ltd). 0.38% citric acid-containing blood collected from rabbits was centrifuged at 1,200 rpm for 15 min. to thereby obtain platelet rich plasma (hereinafter referred to as PRP). The PRP obtained was further centrifuged at 3,500 rpm for 10 min., and the supernatant was used as platelet poor plasma (hereinafter referred to as PPP). […] Then, each 22 μl of the said aggregation-inducing agents, ADP, collagen, U-46619 and thrombin, and 2.2 μl of arachidonic acid, were added thereto, respectively, then platelet aggregation was measured for 5 min., except for collagen, for which the measurement was conducted for 10 min. The inhibitory effect on platelet aggregation was expressed as inhibition rate (%) respective to the maximum aggregation rate obtained in the control plot. […]

A short description of data set [2]: Test on Stability (remaining rate by HPLC after storage at 80° C.). The settings on record: for Remaining Rate (%), 0 day: 80° C.; for Remaining Rate (%), 0 day / Remaining Rate (%), After 4 days: sealed vial, HPLC; for Remaining Rate (%), After 4 days: after 4 days at 80° C., 5760 min. It is filed as physicochemical. As to the method: To 30 ml of ethanol, was dissolved 2 g of (R)-(-)-4,5-dihydro-5-methyl-6-[4-[(2-propyl-3-oxo-1-cyclohexenyl) amino]phenyl]-3(2H)-pyridazinone under heating, and the solution was place for cooling under room temperature. After condensing the solvent of the solution under reduced pressure, the solution was then dried under reduced pressure by using a vacuum pump, thereby affording 1.5 g of the noncrystalline powder of said compound of which melting point being of from 102° to 106° C.
Each 10 mg of the noncrystalline powder obtained as described above and the crystalline form obtained in the Example 2 were weighed precisely, placed in a 20 ml volume vial then sealed, respectively, and preserved for 4 days at 80° C. Then, the vials were cooled to room temperature, and subsequently the determination of the remaining rate (%) of the test compounds were conducted by using high performance liquid chromatography (HPLC).
Column: TSK-gel 80 TM 4.6 mm I.D×250 mm (Manufactured by Tosoh Corporation)
Mobile phase: Mixture of acetonitrile and distillated water (Combining rate, 60/40)
Flow Speed: 1.0 ml/min., Temperature: 40° C., Wavelength for Detection: 254 nm

A short description of data set [3]: Residue of Solvent (water by Karl Fischer, ethanol by GC). The settings on record: for Water Content (%): Karl Fischer moisture meter; for removal of remaining solvent by drying (in words): as demonstrated in Table 4; for Ethanol Content (%): gas chromatography, sample in DMSO. It is filed as physicochemical. How it is done: By using the same noncrystalline powder and the crystalline form as the ones used in the Test Example 2, the amount of remaining solvent was analyzed.
Each 50 mg of the noncrystalline powder and the crystalline form were weighed precisely, on which water content was determined by using a Karl Fischer moisture meter, respectively. Whereas, each 50 mg of the noncrystalline powder and the crystalline form were weighed and dissolved in dimethyl sulfoxide (DMSO), respectively, and those solution were adjusted to a volume of 50 ml, respectively. A 2 μl portion out of the 50 ml solution was used for determining the ethanol content in the test sample by using gas chromatography (GC), respectively.
N2 : 25 ml/min, Air: 0.6 kg/cm^2, H2 : 0.6 kg/cm^2
Temperature : 180° C. at Column; 220° C. at Injection site, 220° C. at Detection site.

Data set [4] deals with platelet aggregation induced by adenosine diphosphate (ADP). The data set is described as follows: Inhibitory effect on platelet aggregation induced by ADP, in vitro, PRP. The settings on record: Oryctolagus cuniculus, 10 μM ADP, rabbit PRP, 3 min pre-incubation, measured 5 min, read-out: Inhibition of Platelet Aggregation (IC50), ADP. It is filed as cell-based, rabbits. As to the method: (§1) In vitro inhibitory activity of the compound of the present invention was evaluated on platelet aggregation each induced by adenosine diphosphate (ADP), collagen, arachidonic acid, U-46619 and thrombin, respectively, by using an aggregation meter (type: hematracer PAT-606, manufactured by Niko bioscience Co., Ltd). 0.38% citric acid-containing blood collected from rabbits was centrifuged at 1,200 rpm for 15 min. to thereby obtain platelet rich plasma (hereinafter referred to as PRP). The PRP obtained was further centrifuged at 3,500 rpm for 10 min., and the supernatant was used as platelet poor plasma (hereinafter referred to as PPP). The platelets in the PRP were prepared by dilution with PPP to a concentration of 2 to 5×10^8 cells/ml, and 10 μM of ADP, 20 μg/ml of collagen, 200 μg/ml of arachidonic acid, 10 μM of U-46619 and 0.5 U/ml of thrombin are used for the induction of platelet aggregation, respectively, where all of those concentrations are expressed in the final concentration. The test compound was dissolved in dimethyl sulfoxide (DMSO), and to 0.2 μl of the solution thus obtained, was added 0.2 ml of the sample of PRP prepared as described above, then the solution was placed for pre-incubation for 3 min. Then, each 22 μl of the said aggregation-inducing agents, ADP, collagen, U-46619 and thrombin, and 2.2 μl of arachidonic acid, were added thereto, respectively, then platelet aggregation was measured for 5 min., except for collagen, for which the measurement was conducted for 10 min. The inhibitory effect on platelet aggregation was expressed as inhibition rate (%) respective to the maximum aggregation rate obtained in the control plot. [formula]
(§2) A dose-response curve was prepared, and from which IC50, a dose attainable 50% inhibition of platelet aggregation, was determined.

Data set [5] has as its system platelet aggregation induced by collagen. Description: Inhibitory effect on platelet aggregation induced by collagen, in vitro, PRP. The class given is cell-based, rabbits. The settings on record: Oryctolagus cuniculus, 20 μg/ml collagen, rabbit PRP, 3 min pre-incubation, measured 10 min, read-out: Inhibition of Platelet Aggregation (IC50), Collagen. How it is done: as §1, §2

The test system of data set [6] is platelet aggregation induced by arachidonic acid. Description: Inhibitory effect on platelet aggregation induced by arachidonic acid, in vitro, PRP. The class given is cell-based, rabbits. The settings on record: Oryctolagus cuniculus, 200 μg/ml arachidonic acid, rabbit PRP, 3 min pre-incubation, measured 5 min, read-out: Inhibition of Platelet Aggregation (IC50), Arachidonic Acid. As to the method: as §1, §2

In data set [7] the test system is platelet aggregation induced by U-46619. The data set is described as follows: Inhibitory effect on platelet aggregation induced by U-46619, in vitro, PRP. The class given is cell-based, rabbits. The settings on record: Oryctolagus cuniculus, 10 μM U-46619, rabbit PRP, 3 min pre-incubation, measured 5 min, read-out: Inhibition of Platelet Aggregation (IC50), U-46619. How it is done:
as §1, §2

Data set [8] has as its system platelet aggregation induced by thrombin. The data set is described as follows: Inhibitory effect on platelet aggregation induced by thrombin, in vitro, PRP. The settings on record: Oryctolagus cuniculus, 0.5 U/ml thrombin, rabbit PRP, 3 min pre-incubation, measured 5 min, read-out: Inhibition of Platelet Aggregation (IC50), Thrombin. It is filed as cell-based, rabbits. How it is done:
as §1, §2

Regarding `CCCC1=C(Nc2ccc(C3=NNC(=O)C[C@H]3C)cc2)CCCC1=O` [Crystalline form, (R)-(-)-4,5-dihydro-5-methyl-6-[4-[(2-propyl-3-oxo-1-cyclohexenyl)amino]phenyl]-3(2H)-pyridazinone], the “inhibitory effect on platelet aggregation (in words)” value in data set [1] is “excellent inhibitory effect on platelet aggregation similar to the effect of the noncrystalline compound, (R)-(-)-(I)”. In addition, in data set [2], the “Remaining Rate (%), 0 day” value turned out to be 100% and the “Remaining Rate (%), After 4 days” value is reported as 96%. Besides, in data set [2] (4 days at 80° C., crystalline form versus noncrystalline powder), the “stability (in words)” value was “superior than that of the noncrystalline powder”. Also, in data set [3], the “Water Content (%)” value is given as 0.2%, the “removal of remaining solvent by drying (in words)” value is listed as “easy to dry” and the “Ethanol Content (%)” value was 0.2%.

As a reminder, the IC50 is the midpoint of a concentration-inhibition curve. `CCCC1=C(Nc2ccc(C3=NNC(=O)C[C@H]3C)cc2)CCCC1=O` (single isomer, unassigned) [(R)-(-)-(I)]: the IC50 in data set [4] worked out at 2.9 µM; in data set [5] it was 2.5 µM; in data set [6] it was 0.82 µM; in data set [7], 0.38 µM; in data set [8], 1.5 µM.

In the case of `CCCC1=C(Nc2ccc(C3=NNC(=O)CC3C)cc2)CCCC1=O` (racemic) [(±)-(I), 4,5-dihydro-5-methyl-6-[4-[(2-propyl-3-oxo-1-cyclohexenyl)amino]phenyl]-3(2H)-pyridazinone], the concentration for half-maximal inhibition (IC50) in data set [4] stood at 4.5 µM; in data set [5] it was 3.5 µM; in data set [6] it was 1.7 µM; in data set [7] it was 1.5 µM; in data set [8], 3 µM.

`CCCC1=C(Nc2ccc(C3=NNC(=O)C[C@H]3C)cc2)CCCC1=O` [Noncrystalline powder, (R)-(-)-4,5-dihydro-5-methyl-6-[4-[(2-propyl-3-oxo-1-cyclohexenyl)amino]phenyl]-3(2H)-pyridazinone]: in data set [2], the “Remaining Rate (%), 0 day” value is 100% and the “Remaining Rate (%), After 4 days” value came to 58%. For the same molecule, in data set [3], the “Water Content (%)” value worked out at 1.3%, the “removal of remaining solvent by drying (in words)” value is “difficult to completely remove the remaining solvent” and the “Ethanol Content (%)” value is 4.3%.

Turning to `CCCC1=C(Nc2ccc(C3=NNC(=O)C[C@@H]3C)cc2)CCCC1=O` [(S)-(-)-(I)], the IC50 in data set [4] is 780 µM; in data set [5] it was 1010 µM; in data set [6], 290 µM; in data set [7], more than 100 µM; in data set [8], 560 µM.
